Patent US8846656B2, “Tetrahydropyrido-pyridine and tetrahydropyrido-pyrimidine compounds and use thereof as C5a receptor modulators” (Novartis AG, priority 2011, dated 2014)

What was measured:
[1] = target: human C5aR (Homo sapiens (Human), UniProt P21730); assay: FLIPR assay: inhibition of C5a-mediated calcium mobilization; assay type: cell-based; conditions: stable cell line over expressing human C5aR & Gα15, human C5a at EC50 (0.1-0.25 nM)
Procedure: Compounds were tested for their ability to inhibit C5a-mediated calcium mobilization using a stable cell line over expressing the human C5aR & the Gα15 protein on the FLIPR (Fluorescent Imaging Plate Reader) Tetra system. Cells were maintained in culture media containing DMEM (Dulbecco's Modified Eagle Medium) with 4.5 g/L glucose, 10% fetal bovine serum, 100 U/mL, 1× non-essential amino acid, and 250 μg/mL G418 (Geneticin). Prior to testing of compounds, cells were plated at 10,000 cells/well in clear bottom 384-well black plate, and incubated overnight at 37° C. with 5% CO2. On the day of experiment, culture media was removed, and replaced with assay buffer HBSS (Hanks' Balanced Salt Solution) with 20 mM HEPES (4-(2-hydroxyethyl)-1-piperazineethanesulfonic acid) and 0.1% BSA (bovine serum albumin) BSA containing calcium 5 dye (Molecular Devices) and 2.5 mM probenecid. After 1 hour incubation at 37° C., 5% CO2 for 60 min, cells were pre-incubated with compounds for 30 minutes at room temperature, in 1% DMSO (dimethyl sulfoxide).

[2] = tested on: CD11b; assay: Human whole blood CD11b up-regulation assay; assay type: cell-based; conditions: Homo sapiens, 2 nM human C5a, CD15+ granulocytes, read-out: hCD11b IC50
Procedure: Whole blood was collected in sodium heparin tubes and the assay started within 2 hours of the blood draw. The blood was incubated with compounds in 1% DMSO (dimethyl sulfoxide) at room temperature for 10 minutes with gentle rocking. 2 nM of human C5a was then added for 15 minutes at room temperature with gentle rocking. Following the C5a incubation period cells were washed once with cold FACS (fluorescence-activated cell sorting) buffer (phosphate buffered saline+0.5% bovine serum albumin) FITC (fluorescein isothiocyanate) mouse anti-human CD15 and PE-Cy5 (phycoerythrin-cyanine 5) mouse anti-human CD11b antibodies (Becton Dickinson) were gently mixed with the cells and allowed to incubate for 30 minutes on ice protected from the light. Cells were then washed three times with cold FACS buffer. Red blood cells (RBC) were lysed by incubating with BD FACS lysis buffer (Becton Dickinson) for 10 minutes at room temperature. Cells were pelleted and the lysing procedure was repeated until all RBCs were lysed. The remaining leukocytes were resuspended in BD lysis buffer. Samples were acquired on the LSR^11 flow cytometer and 10,000 events of the CD15+ granulocyte population were collected. The CD11b median fluorescence intensity of the CD 15+ cell population was evaluated using FACSDiva software (Becton Dickinson).

human C5aR, sequence (P21730 whole entry): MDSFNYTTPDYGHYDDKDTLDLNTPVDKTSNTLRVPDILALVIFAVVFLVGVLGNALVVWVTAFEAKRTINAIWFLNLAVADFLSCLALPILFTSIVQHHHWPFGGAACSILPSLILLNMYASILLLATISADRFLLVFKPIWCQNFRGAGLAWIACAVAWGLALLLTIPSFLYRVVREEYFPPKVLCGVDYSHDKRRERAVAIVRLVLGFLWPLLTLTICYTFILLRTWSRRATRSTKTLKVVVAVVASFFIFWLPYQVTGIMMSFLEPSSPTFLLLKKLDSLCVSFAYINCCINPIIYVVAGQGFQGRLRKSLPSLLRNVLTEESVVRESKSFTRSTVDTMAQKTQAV

Row | SMILES | IC50 [1] | IC50 [2]
1 | CO[C@H]1CCN(c2nc(-c3c(C)ccc4[nH]nc(C)c34)nc3c2CN(c2c(F)c(C4CC4)nn2C)CC3)CC1(C)C [Example 56-C, (S)-6-(3-cyclopropyl-4-fluoro-1-methyl-1H-pyrazol-5-yl)-2-(3,5-dimethyl-1H-indazol-4-yl)-4-(4-methoxy-3,3-dimethylpiperidin-1-yl)-5,6,7,8-tetrahydropyrido[4,3-d]pyrimidine] | 1 nM | 6 nM
2 | CO[C@@H]1CCN(c2nc(-c3cccc4[nH]cc(C)c34)nc3c2CN(c2cc(Cl)ccc2C)CC3)CC1(C)C [Example 17-BK, (R)-6-(5-chloro-2-methylphenyl)-4-(4-methoxy-3,3-dimethylpiperidin-1-yl)-2-(3-methyl-1H-indol-4-yl)-5,6,7,8-tetrahydropyrido[4,3-d]pyrimidine] | 163 nM | 40 nM
3 | Cc1ccc2[nH]nc(C)c2c1-c1nc2c(c(N3CCOC[C@H]3C)n1)CN(c1c(Cl)c(C3CC3)nn1C)CC2 [Example 70-J] | 12 nM | 39 nM
4 | [2H]C1([2H])c2c(C)cc(-c3cccc4[nH]cc(C)c34)nc2CCN1c1c(C)cccc1C [Example 44-E, 6-(2,6-dimethylphenyl)-4-methyl-2-(3-methyl-1H-indol-4-yl)-5,6,7,8-(5,5-^2H2)tetrahydro-1,6-naphthyridine] | 38 nM | 188 nM
5 | CO[C@@H]1CCN(c2nc(-c3c(C)ccc4[nH]nc(C)c34)nc3c2CN(c2c(Cl)c(C4CC4)nn2C)CC3)[C@H](C)C1 [Example 55-M, 6-(4-chloro-3-cyclopropyl-1-methyl-1H-pyrazol-5-yl)-2-(3,5-dimethyl-1H-indazol-4-yl)-4-((2R,4R)-4-methoxy-2-methylpiperidin-1-yl)-5,6,7,8-tetrahydropyrido[4,3-d]pyrimidine] | 1 nM | 15 nM
6 | CCn1nc(C2CC2)c(F)c1N1CCc2nc(-c3c(C)ccc4[nH]nc(C)c34)nc(N3CC[C@@H](OC)C(C)(C)C3)c2C1 [Example 71-B, (R)-6-(3-Cyclopropyl-1-ethyl-4-fluoro-1H-pyrazol-5-yl)-2-(3,5-dimethyl-1H-indazol-4-yl)-4-(4-methoxy-3,3-dimethylpiperidin-1-yl)-5,6,7,8-tetrahydropyrido[4,3-d]pyrimidine] | 2 nM | 10 nM
7 | CO[C@@H]1CN(c2nc(-c3c(C)ccc4[nH]nc(C)c34)nc3c2CN(c2c(Cl)c(C4CC4)nn2C)CC3)[C@H]1C (racemic) [Example 69-I, 6-(4-chloro-3-cyclopropyl-1-methyl-1H-pyrazol-5-yl)-2-(3,5-dimethyl-1H-indazol-4-yl)-4-((trans)-methoxy-2-methylazetidin-1-yl)-5,6,7,8-tetrahydropyrido[4,3-d]pyrimidine] | 4 nM | 25 nM
8 | CO[C@H]1CCN(c2nc(-c3c(C)ccc4[nH]nc(C)c34)nc3c2CN(c2c(Cl)c(C4CC4)nn2C)CC3)CC1(C)C [Example 55-L, (S)-6-(4-Chloro-3-cyclopropyl-1-methyl-1H-pyrazol-5-yl)-2-(3,5-dimethyl-1H-indazol-4-yl)-4-(4-methoxy-3,3-dimethylpiperidin-1-yl)-5,6,7,8-tetrahydropyrido[4,3-d]pyrimidine] | 3 nM | 36 nM
9 | Cc1ccc2[nH]nc(C)c2c1-c1nc2c(c(N3CC(N(C)C)C3)n1)CN(c1c(Cl)c(C3CC3)nn1C)CC2 [Example 69-J, 1-(6-(4-chloro-3-cyclopropyl-1-methyl-1H-pyrazol-5-yl)-2-(3,5-dimethyl-1H-indazol-4-yl)-5,6,7,8-tetrahydropyrido[4,3-d]pyrimidin-4-yl)-N,N-dimethylazetidin-3-amine] | 67 nM | 112 nM
10 | CO[C@@H]1CCN(c2nc(-c3c(C)ccc4[nH]nc(C)c34)nc3c2CN(c2cc(C4CC4)nn2C)CC3)CC1(C)C [Example 23-I, (R)-6-(3-cyclopropyl-1-methyl-1H-pyrazol-5-yl)-2-(3,5-dimethyl-1H-indazol-4-yl)-4-(4-methoxy-3,3-dimethylpiperidin-1-yl)-5,6,7,8-tetrahydropyrido[4,3-d]pyrimidine] | 0.5 nM | 22 nM

Continued, values first:

Row | IC50 [1] | IC50 [2] | SMILES
11 | 31 nM | 423 nM | Cc1ccc(C(C)C)cc1N1CCc2nc(-c3cccc4[nH]cc(C)c34)nc(N3CC[C@H](O)[C@H](C)C3)c2C1 (racemic) [Example 17-AN, racemic-1-(6-(5-isopropyl-2-methylphenyl)-2-(3-methyl-1H-indol-4-yl)-5,6,7,8-tetrahydropyrido[4,3-d]pyrimidin-4-yl)-3-methylpiperidin-4-ol]
12 | 4 nM | 58 nM | Cc1ccc(C(C)C)cc1N1CCc2nc(-c3cccc4[nH]cc(C)c34)nc(N3C[C@H](C)N(CC(N)=O)C[C@H]3C)c2C1 (racemic) [Example 28-D, Racemic-2-(4-(6-(5-Isopropyl-2-methylphenyl)-2-(3-methyl-1H-indol-4-yl)-5,6,7,8-tetrahydropyrido[4,3-d]pyrimidin-4-yl)-(trans)-2,5-dimethylpiperazin-1-yl)acetamide]
13 | 30 nM | 180 nM | CO[C@@H]1CCN(c2nc(-c3c(C)ccnc3C)nc3c2CN(c2cc(C(C)C)ccc2C)CC3)[C@H](C)C1 [Example 21-S, 2-(2,4-dimethylpyridin-3-yl)-6-(5-isopropyl-2-methylphenyl)-4-((2R,4R)-4-methoxy-2-methylpiperidin-1-yl)-5,6,7,8-tetrahydropyrido[4,3-d]pyrimidine]
14 | 4 nM | 56 nM | CO[C@H]1CN(c2nc(-c3c(C)ccc4[nH]nc(C)c34)nc3c2CN(c2cc(C(C)C)ccc2C)CC3)C[C@@H]1N(C)C (single isomer, unassigned) [Example 65-H, (trans)-1-(2-(3,5-dimethyl-1H-indazol-4-yl)-6-(5-isopropyl-2-methylphenyl)-5,6,7,8-tetrahydropyrido[4,3-d]pyrimidin-4-yl)-4-methoxy-N,N-dimethylpyrrolidin-3-amine]
15 | 6 nM | 391 nM | Cc1ccc(C(C)C)cc1N1CCc2nc(-c3c(C)ccc4[nH]ncc34)nc(N3CCN(CC(N)=O)C[C@H]3C)c2C1 [Example 24-L, (R)-2-(4-(6-(5-isopropyl-2-methylphenyl)-2-(5-methyl-1H-indazol-4-yl)-5,6,7,8-tetrahydropyrido[4,3-d]pyrimidin-4-yl)-3-methylpiperazin-1-yl)acetamide]
16 | 10 nM | 42 nM | COC1CCN(c2nc(-c3cccc4[nH]cc(C)c34)nc3c2CN(c2cc(C(C)C)ccc2C)CC3)[C@H](C)C1 (stereo in doubt) [Example 17-R, 6-(5-isopropyl-2-methylphenyl)-4-((2R,4S)-4-methoxy-2-methylpiperidin-1-yl)-2-(3-methyl-1H-indol-4-yl)-5,6,7,8-tetrahydropyrido[4,3-d]pyrimidine]
17 | 1 nM | 7 nM | CO[C@@H]1CCN(c2nc(-c3c(C)ccc4[nH]nc(C)c34)nc3c2CN(c2cc(C(C)C)ccc2C)CC3)[C@H](C)C1 [Example 21-Q, (+)-2-(3,5-dimethyl-1H-indazol-4-yl)-6-(5-isopropyl-2-methylphenyl)-4-((2R,4R)-4-methoxy-2-methylpiperidijn-1-yl)-5,6,7,8-tetrahydropyrido[4,3-d]pyrimidine]
18 | 9 nM | 18 nM | COc1nc(-c2c(C)ccc3[nH]nc(C)c23)nc2c1CN(c1cc(C(C)C)ccc1C)CC2 [Example 31-I, 2-(3,5-dimethyl-1H-indazol-4-yl)-6-(5-isopropyl-2-methylphenyl)-4-methoxy-5,6,7,8-tetrahydropyrido[4,3-d]pyrimidine]
19 | 9 nM | 93 nM | CO[C@@H]1CCN(c2nc(-c3c(C)cc(C)cc3C)nc3c2CN(c2cc(C(C)C)ccc2C)CC3)CC1(C)C [Example 21-AE, (R)-6-(5-isopropyl-2-methylphenyl)-2-mesityl-4-(4-methoxy-3,3-dimethylpiperidin-1-yl)-5,6,7,8-tetrahydropyrido[4,3-d]pyrimidine]
20 | 4 nM | 114 nM | CO[C@H]1CCN(c2nc(-c3cccc4[nH]cc(C)c34)nc3c2CN(c2cc(C(C)C)ccc2C)CC3)CC1(C)C [Example 17-G, (S)-6-(5-Isopropyl-2-methylphenyl)-4-(4-methoxy-3,3-dimethylpiperidin-1-yl)-2-(3-methyl-1H-indol-4-yl)-5,6,7,8-tetrahydropyrido[4,3-d]pyrimidine]
21 | 56 nM | 181 nM | CO[C@@H]1CCN(c2nc(-c3c(C)cncc3C)nc3c2CN(c2cc(C(C)C)ccc2C)CC3)CC1(C)C [Example 21-M, (R)-2-(3,5-dimethylpyridin-4-yl)-6-(5-isopropyl-2-methylphenyl)-4-(4-methoxy-3,3-dimethylpiperidin-1-yl)-5,6,7,8-tetrahydropyrido[4,3-d]pyrimidine]
